# From US11331299B2, “Medicinal use of serrulatane diterpenes” (The University of Sydney, priority 2016, dated 2022)
# Where two headings read alike, the source gives them in different places.
# Tested on: 280 human cancer cell lines
# Assay: OncoPanel cell proliferation assay (10-day)
# Format: cell-based
# Settings: Homo sapiens; for IC50: read-out: Cell Count IC50; for EC50: read-out: Cell Count EC50
# [1] = SW872, SW872, Soft Tissue - Sarcoma
# [2] = SW 954, SW954, Female GU - Vulva
# [3] = SW982, SW982, Soft Tissue - Sarcoma
# [4] = SW1353, SW1353, Soft Tissue - Osteosarcoma
# [5] = TE 125.T, Soft Tissue - Sarcoma
# [6] = TE 381.T, Soft Tissue - Sarcoma
# [7] = U2OS, Soft Tissue - Osteosarcoma
# [8] = U-118-MG, U-118 MG, CNS - Glioma
# [9] = VA-ES-BJ, Soft Tissue - Sarcoma
# [10] = WM 266-4, WM-266-4, Skin (Melanoma)
structure (smiles),measurement,setting,value
"CC(C)=CCC[C@@H]1C(O)Oc2c(C)cc(O)c3c2[C@H]1CC[C@H]3C (some centres unmarked) [Compound 2, 5,18-epoxyserrulat-14-en-8,18-diol]",IC50,"SW837, SW837, Colon",> 30 µM
same,EC50,[1],4.46 µM
same,GI50,"SW872, SW872, Soft Tissue - Sarcoma, read-out: Cell Count GI50",4.45 µM
same,IC50,[1],4.46 µM
same,EC50,"SW900, SW900, Lung - SCLC",26.6 µM
same,GI50,"SW900, SW900, Lung - SCLC, read-out: Cell Count GI50",26.7 µM
same,IC50,"SW900, SW900, Lung - SCLC",26.8 µM
same,EC50,"SW948, SW948, Colon",14.7 µM
same,GI50,"SW948, SW948, Colon, read-out: Cell Count GI50",14.5 µM
same,IC50,"SW948, SW948, Colon",14.7 µM
same,EC50,[2],> 30 µM
same,GI50,"SW 954, SW954, Female GU - Vulva, read-out: Cell Count GI50",> 30 µM
same,IC50,[2],> 30 µM
same,EC50,[3],7.63 µM
same,GI50,"SW982, SW982, Soft Tissue - Sarcoma, read-out: Cell Count GI50",7.53 µM
same,IC50,[3],7.63 µM
same,EC50,"SW1088, SW1088, CNS - Glioma",10.7 µM
same,GI50,"SW1088, SW1088, CNS - Glioma, read-out: Cell Count GI50",10.5 µM
same,IC50,"SW1088, SW1088, CNS - Glioma",10.7 µM
same,EC50,[4],9.49 µM
same,GI50,"SW1353, SW1353, Soft Tissue - Osteosarcoma, read-out: Cell Count GI50",9.46 µM
same,IC50,[4],9.49 µM
same,EC50,"SW1417, SW1417, Colon",22.8 µM
same,GI50,"SW1417, SW1417, Colon, read-out: Cell Count GI50",21.8 µM
same,IC50,"SW1417, SW1417, Colon",22.8 µM
same,EC50,"SW1463, SW1463, Colon",> 30 µM
same,GI50,"SW1463, SW1463, Colon, read-out: Cell Count GI50",> 30 µM
same,IC50,"SW1463, SW1463, Colon",> 30 µM
same,EC50,"SW1783, SW1783, CNS - Glioma",10.2 µM
same,GI50,"SW1783, SW1783, CNS - Glioma, read-out: Cell Count GI50",10.5 µM
same,IC50,"SW1783, SW1783, CNS - Glioma",11 µM
same,EC50,"SW-403, SW403, Colon",> 30 µM
same,GI50,"SW-403, SW403, Colon, read-out: Cell Count GI50",> 30 µM
same,IC50,"SW-403, SW403, Colon",> 30 µM
same,EC50,"SW-620, SW620, Colon",13.2 µM
same,GI50,"SW-620, SW620, Colon, read-out: Cell Count GI50",13.2 µM
same,IC50,"SW-620, SW620, Colon",13.2 µM
same,EC50,"SiHa, Female GU - Cervix",28.3 µM
same,GI50,"SiHa, Female GU - Cervix, read-out: Cell Count GI50",25.8 µM
same,IC50,"SiHa, Female GU - Cervix",28.3 µM
same,EC50,"T24, Bladder",20.4 µM
same,GI50,"T24, Bladder, read-out: Cell Count GI50",20.3 µM
same,IC50,"T24, Bladder",20.4 µM
same,EC50,"T47D, Breast",10.2 µM
same,GI50,"T47D, Breast, read-out: Cell Count GI50",9.4 µM
same,IC50,"T47D, Breast",10.2 µM
same,EC50,"T98G, CNS - Glioma",19.1 µM
same,GI50,"T98G, CNS - Glioma, read-out: Cell Count GI50",19 µM
same,IC50,"T98G, CNS - Glioma",19.1 µM
same,EC50,"TCC-SUP, TCCSUP, Bladder",8.2 µM
same,GI50,"TCC-SUP, TCCSUP, Bladder, read-out: Cell Count GI50",7.78 µM
same,IC50,"TCC-SUP, TCCSUP, Bladder",8.2 µM
same,EC50,[5],> 30 µM
same,GI50,"TE 125.T, Soft Tissue - Sarcoma, read-out: Cell Count GI50",28.7 µM
same,IC50,[5],> 30 µM
same,EC50,[6],8.14 µM
same,GI50,"TE 381.T, Soft Tissue - Sarcoma, read-out: Cell Count GI50",7.99 µM
same,IC50,[6],8.14 µM
same,EC50,"TF-1, Leukemia",2.75 µM
same,GI50,"TF-1, Leukemia, read-out: Cell Count GI50",2.44 µM
same,IC50,"TF-1, Leukemia",2.75 µM
same,EC50,"THP-1, Thp1, Leukemia",5.32 µM
same,GI50,"THP-1, Thp1, Leukemia, read-out: Cell Count GI50",5.61 µM
same,IC50,"THP-1, Thp1, Leukemia",5.69 µM
same,EC50,"TUR, Lymphoma",2.63 µM
same,GI50,"TUR, Lymphoma, read-out: Cell Count GI50",> 30 µM
same,IC50,"TUR, Lymphoma",> 30 µM
same,EC50,[7],12.7 µM
same,GI50,"U2OS, Soft Tissue - Osteosarcoma, read-out: Cell Count GI50",12.7 µM
same,IC50,[7],12.7 µM
same,EC50,"U138-MG, U-138MG, CNS - Glioma",> 30 µM
same,GI50,"U138-MG, U-138MG, CNS - Glioma, read-out: Cell Count GI50",> 30 µM
same,IC50,"U138-MG, U-138MG, CNS - Glioma",> 30 µM
same,EC50,"U266B1, Myeloma",9.15 µM
same,GI50,"U266B1, Myeloma, read-out: Cell Count GI50",9.01 µM
same,IC50,"U266B1, Myeloma",9.28 µM
same,EC50,"U-87 MG, CNS - Glioma",> 30 µM
same,GI50,"U-87 MG, CNS - Glioma, read-out: Cell Count GI50",> 30 µM
same,IC50,"U-87 MG, CNS - Glioma",> 30 µM
same,EC50,[8],29.6 µM
same,GI50,"U-118-MG, U-118 MG, CNS - Glioma, read-out: Cell Count GI50",29.4 µM
same,IC50,[8],29.6 µM
same,EC50,"UMUC3, UM-UC-3, Bladder",5.3 µM
same,GI50,"UMUC3, UM-UC-3, Bladder, read-out: Cell Count GI50",5.74 µM
same,IC50,"UMUC3, UM-UC-3, Bladder",5.75 µM
same,EC50,[9],> 30 µM
same,GI50,"VA-ES-BJ, Soft Tissue - Sarcoma, read-out: Cell Count GI50",> 30 µM
same,IC50,[9],> 30 µM
same,EC50,[10],6.39 µM
same,GI50,"WM 266-4, WM-266-4, Skin (Melanoma), read-out: Cell Count GI50",6.25 µM
same,IC50,[10],6.39 µM
same,EC50,"WiDr, Colon",14.5 µM
same,GI50,"WiDr, Colon, read-out: Cell Count GI50",14.4 µM
same,IC50,"WiDr, Colon",14.5 µM
same,EC50,"Y79, Eye",6.57 µM
same,GI50,"Y79, Eye, read-out: Cell Count GI50",7.41 µM
same,IC50,"Y79, Eye",7.65 µM
same,EC50,"YAPC, Pancreas",13 µM
same,GI50,"YAPC, Pancreas, read-out: Cell Count GI50",12.9 µM
same,IC50,"YAPC, Pancreas",13 µM
same,GI50,"strong: J-RT3-T3-5, Jurkat, MOLT-3, NALM-6, TF-1, RPMI8226, SKO-007, RD, read-out: GI50",1 to 2.96 µM
